Among the data in ChEMBL document CHEMBL4130426, “Namalides B and C and Spumigins K-N from the Cultured Freshwater Cyanobacterium Sphaerospermopsis torques-reginae” (J Nat Prod, 2017) are IC50 and inhibition values, retold here.

The target in assay [1] is T1, Prothrombin (Homo sapiens, UniProt P00734). The assay is described as follows: Inhibition of thrombin (unknown origin) using N-benzoyl-Phe-Val-Arg-p-nitroanilide hydrochloride as substrate pretreated for 5 mins followed by substrate addition measured after 30 mins by colorimetric method.
Assay [2] has as its target T1, Prothrombin. As to the kind of experiment: Inhibition of thrombin (unknown origin) up to 150 to 350 uM using N-benzoyl-Phe-Val-Arg-p-nitroanilide hydrochloride as substrate pretreated for 5 mins followed by substrate addition measured after 30 mins by colorimetric method.
A further assay has as its target T2, Carboxypeptidase A1 (Bos taurus, UniProt P00730).
T2 sequence (P00730 whole entry): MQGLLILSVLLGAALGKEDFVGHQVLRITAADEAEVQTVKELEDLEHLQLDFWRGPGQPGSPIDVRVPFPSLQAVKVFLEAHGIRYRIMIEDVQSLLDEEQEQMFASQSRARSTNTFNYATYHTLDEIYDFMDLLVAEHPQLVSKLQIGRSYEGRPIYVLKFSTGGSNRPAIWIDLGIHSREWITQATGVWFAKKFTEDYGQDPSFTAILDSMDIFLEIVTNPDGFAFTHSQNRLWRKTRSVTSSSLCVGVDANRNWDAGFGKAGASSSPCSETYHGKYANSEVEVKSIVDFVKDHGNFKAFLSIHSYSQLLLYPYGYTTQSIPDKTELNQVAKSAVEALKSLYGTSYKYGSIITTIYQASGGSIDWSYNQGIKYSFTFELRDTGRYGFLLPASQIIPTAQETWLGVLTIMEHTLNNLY
The assay is described as follows: Inhibition of bovine pancreas carboxypeptidase A using N-4-(methoxyphenylazoformyl)-Phe-OH as substrate measured after 5 mins by colorimetric method.

The target in assay [3] is T3, Chymotrypsin-C (Homo sapiens) (UniProt Q99895).
T3 sequence (whole entry): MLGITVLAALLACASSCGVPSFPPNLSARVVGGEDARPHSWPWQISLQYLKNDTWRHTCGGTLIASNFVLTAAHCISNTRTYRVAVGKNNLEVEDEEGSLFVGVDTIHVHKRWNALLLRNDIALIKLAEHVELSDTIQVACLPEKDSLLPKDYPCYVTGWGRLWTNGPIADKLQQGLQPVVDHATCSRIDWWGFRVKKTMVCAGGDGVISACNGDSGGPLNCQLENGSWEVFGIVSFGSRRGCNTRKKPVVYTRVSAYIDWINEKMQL
As to the kind of experiment: Inhibition of human pancreas chymotrypsin C up to 0.78 mM using N-succinyl-Ala-Ala-Pro-Phe p-nitroanilide as substrate pretreated for 5 mins followed by substrate addition measured after 30 mins by colorimetric method.

Structures are written as SMILES. Calls of active or inactive are those of the source. No cut-off for these calls is given here.

Broadly, the IC50 is the point on the concentration scale where inhibition reaches its midpoint.

As to `N=C(N)NCCC[C@H](CO)NC(=O)[C@@H]1CCCN1C(=O)[C@@H](Cc1ccc(O)cc1)NC(=O)C(O)CCc1ccc(O)cc1` (stereo partly drawn), the IC50 on Prothrombin [1] was found to be 250 µM. As to `CC1C[C@@H](C(=O)N[C@H](CO)CCCNC(=N)N)N(C(=O)[C@@H](Cc2ccc(O)cc2)NC(=O)C(O)CCc2ccc(O)cc2)C1` (stereo partly drawn), the inhibition result on Prothrombin [2] is “inactive”. In turn, `CC[C@@H](C)[C@H](NC(=O)N[C@@H]1CCCCNC(=O)[C@H](CCc2ccc(O)cc2)NC(=O)[C@H](C(C)C)NC1=O)C(=O)O` showed an IC50 on Carboxypeptidase A1 of 2 µM. The inhibition entry in assay [3] was “inactive”. On to `CC1C[C@@H](C(=O)N[C@@H](CO)CCCNC(=N)N)N(C(=O)[C@@H](Cc2ccc(O)cc2)NC(=O)C(O)CCc2ccc(O)cc2)C1` (stereo partly drawn), for which the inhibition result on Prothrombin [2] is “inactive”.

`N=C(N)NCCC[C@@H](CO)NC(=O)[C@@H]1CCCN1C(=O)[C@@H](Cc1ccc(O)cc1)NC(=O)C(O)CCc1ccc(O)cc1` (stereo partly drawn): the IC50 on Prothrombin [1] worked out at 250 µM. `CC[C@@H](C)[C@H](NC(=O)N[C@@H]1CCCCNC(=O)[C@H](CCc2ccc(O)cc2)NC(=O)[C@H]([C@H](C)CC)NC1=O)C(=O)O`: it took 0.75 µM to reach half-maximal inhibition against Carboxypeptidase A1 (IC50). For the same compound, the inhibition result in assay [3] is “inactive”.
